Drawing on US20140357633A1, “COMPOUNDS FOR INHIBITING THE INTERACTION OF BCL2 WITH BINDING PARTNERS” (NOVARTIS AG, priority 2011, published 2014), this text covers IC50 for 35 molecules.

pIC50: −log10 of the molar value.

Experiment [1] addresses BCL-2 (binding to BAD peptide) (Homo sapiens, UniProt P10415). Put plainly: SPR (Biacore) solution inhibition assay, BCL-2 binding to immobilized BAD peptide. To be noted: biotinylated BAD peptide surface, 56 nM BCL-2, 25° C.; range = high and low IC50 values from multiple experiments; read-out: BCL2_SPR IC50 BAD. The source says:
(§1) The present method includes utility of a Surface plasmon resonance (SPR)-based biosensor (Biacore™′ GE Healthcare, Uppsala, Sweden) to characterize BCL-2 inhibitors.
(§2) Biacore™ utilizes the phenomenon of surface plasmon resonance (SPR) to detect and measure binding interactions. In a typical Biacore experiment, one of the interacting molecules (ligand) is immobilized on a flexible dextran matrix while the interacting partner (analyte) is allowed to flow across that surface. A binding interaction results in an increase in mass on the sensor surface and a corresponding direct change in the refractive index of the medium in the vicinity of the sensor surface. Changes in refractive index or signal are recorded in resonance units (R.U.) Signal changes due to association and dissociation of complexes are monitored in a non-invasive manner, continuously and in real-time, the results of which are reported in the form of a sensorgram.
(§3) The SPR assay is configured to examine solution inhibition of BCL-2 binding to peptide derivatized sensor surfaces to generate IC50 values as a measure of inhibitor potency.
(§4) Biacore™ A100 (GE Healthcare, Uppsala, Sweden) was used to conduct all experiments reported herein. Sensor surface preparation and all interaction analyses experiments were performed at 25° C. Reagents were purchased from GE Healthcare. Running buffer containing 10 mM Hepes, pH7.4, 150 mM sodium chloride, 1.25 mM Dithiothreitol, 3% Dimethyl sulfoxide and 0.05% polysorbate 20 were utilized throughout all analyses.
(§5) Biotinylated BAK, BAD and NOXA peptides were diluted to 10 nM in running buffer and captured onto a sensor surface pre-derivatized with streptavidin (sensor chip SA) to peptide surface densities in the range 50-100 R.U. Peptide captured surfaces were blocked with 500 μM PEO2-Biotin.
(§6) Interaction analyses were performed by first equilibrating each sample within a 6 point three fold compound dilution series in the range 16 μM to […] with 56 nM BCL-2 for one hour during instrument start-up procedures. Protein compound mixtures were then injected over each peptide surface in parallel for 60 seconds at a flow-rate of 30 μL/min. 56 nM BCL-2 control samples were also prepared and run at regular intervals during the assay. Surface regeneration was performed at the end of each analysis cycle by two 30 second injections of 10 mM Glycine, pH 2.5, 1M Sodium Chloride, 0.05% polysorbate 20. Samples and control compound samples were run in duplicate and controls are also run at regular intervals during the assay to monitor surface and assay performance.
(§7) Data analyses are carried out using Biacore™ A100 evaluation software v1.1 to validate assay quality. Binding level report points were used relative to BCL-2 control samples to calculate % inhibition values for each compound protein mixture. […] The range of data shown in table 1 represents the high and low IC50 values obtained from multiple experiments.

The target of experiment [2] is BCL-2 (binding to BAK peptide) (Homo sapiens, UniProt P10415). Description: SPR (Biacore) solution inhibition assay, BCL-2 binding to immobilized BAK peptide. To be noted: biotinylated BAK peptide surface, 56 nM BCL-2, 25° C.; range = high and low IC50 values from multiple experiments; read-out: BCL2_SPR IC50 BAK.
From the text: as §1, §2, §3, §4, §5, §6, §7

BCL-2 (binding to BAD peptide), sequence (P10415 whole entry): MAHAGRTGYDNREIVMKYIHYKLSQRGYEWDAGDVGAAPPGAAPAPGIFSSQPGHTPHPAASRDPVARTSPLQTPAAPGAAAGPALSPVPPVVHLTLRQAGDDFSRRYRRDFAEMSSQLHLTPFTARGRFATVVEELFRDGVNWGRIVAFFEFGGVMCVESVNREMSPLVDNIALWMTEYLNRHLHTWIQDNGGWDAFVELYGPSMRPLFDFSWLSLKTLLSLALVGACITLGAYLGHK
BCL-2 (binding to BAK peptide), sequence (P10415 whole entry): as above

In general, pIC50 refers to the IC50 on a negative log10 scale, so that one unit is a factor of ten. On to `CCCCN(CCCC)C(=O)c1cc(C)n(-c2ccc(NC(=O)C(CC(=O)O)c3ccccc3)cc2C(=O)N2Cc3ccccc3C[C@H]2CO)n1` (stereo partly drawn) [Example 2, 4-((4-(3-(dibutylcarbamoyl)-5-methyl-1H-pyrazol-1-yl)-3-((S)-3-(hydroxymethyl)-1,2,3,4-tetrahydroisoquinoline-2-carbonyl)phenyl)amino)-4-oxo-3-phenylbutanoic acid], for which the negative-log IC50 (pIC50) in experiment [1] was 7.27 to 7.52; in experiment [2], 7.35 to 7.56. On the same counts, the results for `CCCCN(CCCC)C(=O)c1cc(C)n(-c2ccc(NC(=O)Cc3cccc4ccccc34)cc2C(=O)N2Cc3ccccc3C[C@H]2CO)n1` [Example 3, (S)—N,N-dibutyl-1-(2-(3-(hydroxymethyl)-1,2,3,4-tetrahydroisoquinoline-2-carbonyl)-4-(2-(naphthalen-1-yl)acetamido)phenyl)-5-methyl-1H-pyrazole-3-carboxamide] are 7.24 to 7.31 and 7.28 to 7.35. In the same order, the values of `CCCCN(CCCC)C(=O)c1cc(C)n(-c2ccc(NC(=O)COc3ccccc3)cc2C(=O)N2Cc3ccccc3C[C@H]2CO)n1` [Example 4] are 7.01 to 7.10 and 6.96 to 7.08.

Turning to `CCCCN(CCCC)C(=O)c1cc(C)n(-c2ccc(NC(=O)Cc3ccccc3)cc2C(=O)N2Cc3ccccc3C[C@H]2CO)n1` [Example 5], the negative logarithm of the IC50 (pIC50) in experiment [1] is 6.89 to 7.02; in experiment [2] it was 6.87 to 7.01. On the same counts, the results for `CCCCN(CCCC)C(=O)c1cc(C)n(-c2ccc(NC(=O)C(CC(=O)OC)c3ccccc3)cc2C(=O)N2Cc3ccccc3C[C@H]2CO)n1` (stereo partly shown) [Example 6] are 6.92 and 6.97 to 6.98. In the same order, the values of `CCCCN(CCCC)C(=O)c1cc(C)n(-c2ccc(NC(=O)COc3ccc(Cl)cc3)cc2C(=O)N2Cc3ccccc3C[C@H]2CO)n1` [Example 7] are 6.70 and 6.79 to 6.85.

Regarding `CCCCN(CCCC)C(=O)c1cc(C)n(-c2ccc(NC(=O)CCc3ccccc3)cc2C(=O)N2Cc3ccccc3C[C@H]2CO)n1` [Example 8], the negative logarithm of the IC50 (pIC50) in experiment [1] was 6.59 to 6.70; in experiment [2], 6.54 to 6.72. In the same order, the values of `CCCCN(CCCC)C(=O)c1cc(C)n(-c2ccc(NC(=O)OCC(C)C)cc2C(=O)N2Cc3ccccc3C[C@H]2CO)n1` [Example 9] are 6.22 to 6.30 and 6.35 to 6.40.

As for `CCCCN(CCCC)C(=O)c1cc(C)n(-c2ccc(NC(=O)Oc3ccccc3)cc2C(=O)N2Cc3ccccc3C[C@H]2CO)n1` [Example 10], the pIC50 is 6.28 to 6.30 in experiment [1] and 6.51 to 6.55 in experiment [2].

As to `CCCCN(CCCC)C(=O)c1cc(C)n(-c2ccc(NC(=O)OCC)cc2C(=O)N2Cc3ccccc3C[C@H]2CO)n1` [Example 11], the results for the negative-log IC50 (pIC50) in experiment [1] and in experiment [2] were 6.22 to 6.23 and 6.25 to 6.26, respectively. On the same counts, the results for `CCCCN(CCCC)C(=O)c1cc(C)n(-c2ccc(NC(=O)OC)cc2C(=O)N2Cc3ccccc3C[C@H]2CO)n1` [Example 12] are 6.05 to 6.21 and 6.24 to 6.25.

Turning to `CCCCN(CCCC)C(=O)c1cc(C)n(-c2ccc(NC(C)=O)cc2C(=O)N2Cc3ccccc3C[C@H]2CO)n1` [Example 13], the pIC50 in experiment [1] was 6.10 to 6.11; in experiment [2], 6.32 to 6.34.

As for `CCCCN(CCCC)C(=O)c1cc(C)n(-c2ccc(NC(=O)C(CC(=O)O)Cc3ccccc3)cc2C(=O)N2Cc3ccccc3C[C@H]2CO)n1` (stereo partly shown) [Example 15], the pIC50 in experiment [1] was 7.23 to 7.27; in experiment [2] it was 7.32 to 7.35. On to `CCCCN(CCCC)C(=O)c1cc(C)n(-c2ccc(NC(=O)CC(CC(=O)O)c3ccccc3)cc2C(=O)N2Cc3ccccc3C[C@H]2CO)n1` (stereo partly shown) [Example 16], for which the pIC50 in experiment [1] is 6.90 to 6.92; in experiment [2], 6.99 to 7.02. In the same order, the values of `CCCCN(CCCC)C(=O)c1cc(C)n(-c2ccc(NC(=O)CCC(=O)O)cc2C(=O)N2Cc3ccccc3C[C@H]2CO)n1` [Example 17] are 6.60 to 6.67 and 6.76 to 6.82. Regarding `CCCCN(CCCC)C(=O)c1cc(C)n(-c2ccc(NC(=O)COc3ccc(C(C)C)cc3)cc2C(=O)N2Cc3ccccc3C[C@H]2CO)n1` [Example 18], the pIC50 in experiment [1] was 6.60 to 6.72; in experiment [2], 6.58 to 6.73.

On to `CCCCN(CCCC)C(=O)c1cc(C)n(-c2ccc(NC(=O)CC(=O)O)cc2C(=O)N2Cc3ccccc3C[C@H]2CO)n1` [Example 19], for which the negative logarithm of the IC50 (pIC50) in experiment [1] was 6.44; in experiment [2] it was 6.60 to 6.62. On the same counts, the results for `CCCCN(CCCC)C(=O)c1cc(C)n(-c2ccc(NC(=O)COc3ccc(OCc4ccccc4)cc3)cc2C(=O)N2Cc3ccccc3C[C@H]2CO)n1` [Example 20] are 5.74 to 5.91 and 5.68 to 5.91. Turning to `CCCCN(CCCC)C(=O)c1cc(C)n(-c2ccc(NC(=O)COc3ccc([N+](=O)[O-])cc3)cc2C(=O)N2Cc3ccccc3C[C@H]2CO)n1` [Example 21], the pIC50 in experiment [1] is 5.57 to 5.62; in experiment [2], 5.66 to 5.71. In the same order, the values of `CCCCN(CCCC)C(=O)c1cc(C)n(-c2ccc(NC(=O)COc3cccc(OC)c3)cc2C(=O)N2Cc3ccccc3C[C@H]2CO)n1` [Example 22] are 5.46 and 5.46 to 5.58. With `CCCCN(CCCC)C(=O)c1cc(C)n(-c2ccc(NC(=O)COc3ccccc3Cl)cc2C(=O)N2Cc3ccccc3C[C@H]2CO)n1` [Example 23], the figures for the pIC50 in experiment [1] and in experiment [2] were 5.31 and 5.38 to 5.41, respectively.

In the case of `CCCCN(CCCC)C(=O)c1cc(C)n(-c2ccc(NC(=O)COc3ccc(OC)cc3)cc2C(=O)N2Cc3ccccc3C[C@H]2CO)n1` [Example 24], the negative-log IC50 (pIC50) is 4.93 to 5.06 in experiment [1] and 5.06 to 5.19 in experiment [2]. In the same order, the values of `CCCCN(CCCC)C(=O)c1cc(C)n(-c2ccc(NC(=O)C(Cc3ccccc3)C(=O)O)cc2C(=O)N2Cc3ccccc3C[C@H]2CO)n1` (stereo partly shown) [Example 25] are 7.17 and 7.14 to 7.20. On the same counts, the results for `CCCCN(CCCC)C(=O)c1cc(C)n(-c2ccc(NC(=O)C(Cc3ccccc3)(Cc3ccccc3)C(=O)O)cc2C(=O)N2Cc3ccccc3C[C@H]2CO)n1` [Example 26] are 7.20 to 7.34 and 7.26 to 7.36.

With `CCCCN(CCCC)C(=O)c1cc(C)n(-c2ccc(NC(=O)C(CC(=O)N3CCCC3)c3ccccc3)cc2C(=O)N2Cc3ccccc3C[C@H]2CO)n1` (stereo partly shown) [Example 27], the values for the pIC50 in experiment [1] and in experiment [2] were 7.18 to 7.21 and 7.15 to 7.23, respectively. In the same order, the values of `CCCCN(CCCC)C(=O)c1cc(C)n(-c2ccc(NC(=O)CC3CCCCC3)cc2C(=O)N2Cc3ccccc3C[C@H]2CO)n1` [Example 28] are 6.53 to 6.58 and 6.49 to 6.54.

Regarding `CCCCN(CCCC)C(=O)c1cc(C)n(-c2ccc(NC(=O)C(C)c3ccccc3)cc2C(=O)N2Cc3ccccc3C[C@H]2CO)n1` (stereo partly shown) [Example 29], the pIC50 in experiment [1] is 6.74 to 6.79; in experiment [2], 6.72 to 6.74.

Regarding `CCCCN(CCCC)C(=O)c1cc(C)n(-c2ccc(NC(=O)C3(c4ccccc4)CC3)cc2C(=O)N2Cc3ccccc3C[C@H]2CO)n1` [Example 30], the values for the pIC50 in experiment [1] and in experiment [2] were 6.57 to 6.60 and 6.62 to 6.69, respectively.

`CCCCN(CCCC)C(=O)c1cc(C)n(-c2ccc(NC(=O)C(C)(C)c3ccccc3)cc2C(=O)N2Cc3ccccc3C[C@H]2CO)n1` [Example 31]: the results for the pIC50 in experiment [1] and in experiment [2] were 6.84 to 6.88 and 6.84 to 6.93, respectively. Regarding `CCCCN(CCCC)C(=O)c1cc(C)n(-c2ccc(NC(=O)COc3cccnc3)cc2C(=O)N2Cc3ccccc3C[C@H]2CO)n1` [Example 32], the negative-log IC50 (pIC50) in experiment [1] was 6.61 to 6.63; in experiment [2], 6.69. In the same order, the values of `CCCCN(CCCC)C(=O)c1cc(C)n(-c2ccc(NC(=O)C(Cc3ccccc3)C(=O)O)cc2C(=O)N2Cc3ccccc3C[C@H]2CO)n1` (stereo partly shown) [Example 34] are 7.17 and 7.14 to 7.20. As for `CCCCN(CCCC)C(=O)c1cc(C)n(-c2ccc(NC(=O)C(CC(=O)N(C)C)c3ccccc3)cc2C(=O)N2Cc3ccccc3C[C@H]2CO)n1` (stereo partly shown) [Example 36], the negative-log IC50 (pIC50) in experiment [2] was 6.84 to 6.96. Turning to `CCCCN(CCCC)C(=O)c1cc(C)n(-c2ccc(NC(=O)C(C)CC(=O)O)cc2C(=O)N2Cc3ccccc3C[C@H]2CO)n1` (stereo partly shown) [Example 37], the results for the pIC50 in experiment [1] and in experiment [2] were 6.76 to 6.77 and 6.89 to 6.90, respectively. In the case of `CCCCN(CCCC)C(=O)c1cc(C)n(-c2ccc(NC(=O)c3ccc(Cl)cc3I)cc2C(=O)N2Cc3ccccc3C[C@H]2CO)n1` [Example 82], the negative-log IC50 (pIC50) in experiment [1] was 5.83 to 5.88. For `CCCCN(CCCC)C(=O)c1cc(C)n(-c2ccc(NC(=O)C(C)C)cc2C(=O)N2Cc3ccccc3C[C@H]2CO)n1` [Example 163], the negative-log IC50 (pIC50) in experiment [2] is 6.31 to 6.32.
